Data from patent US20030162734A1, “Modulation of DENN-MADD expression and interactions for treating neurological disorders” (priority 2001, published 2003).
“Also recorded” adds a separate entry of the source.

Experiments:
DENN [1] = test: Western blot of endogenous DENN in stressed neuroblastoma cultures; format: cell-based, mouse; details: for DENN expression in cultures treated with oxidative stress factors: data not shown
Procedure: (§1) A) NSC19 and N2A cells were exposed to 0.1% BSA (Control) or 20 μM fibrillar Aβ(1-40) for 48 h. Cell extracts (100 μg) were immunoblotted with DENN antibody and reprobed with actin antibody. DENN reactive bands appear at ˜200 kD and ˜140 kD. DENN protein expression is higher in NSC19 relative to N2A cells. Aβ exposure dramatically reduces DENN protein expression. Similar results were obtained in three independent experiments. B) Total RNA from Control and Aβ exposed N2A cultures was extracted and RT-PCR using either DENN or actin specific primers was performed. […] Results are representative of three independent experiments. C) Primary rat hippocampal neurons were exposed to 25 μM Aβ(1-42) for 24 h, fixed in 4% PFA and stained with antibodies specific for DENN, phospho-JNK (P-JNK) and counterstained with Hoechst 33342 for nuclei.
NSC 19 cells were harvested after the appropriate treatments by scraping into cold PBS and centrifuging at 1500 ×g for 5 min at 4° C. Cells were then lysed in buffer A (20 mM Tris-Cl, pH 7.5, 1% Triton X-100, 0.5% NP-40, 0.1 M NaCl, 20 mM β-glycerophosphate, 2 mM EDTA, 2 mM sodium pyrophosphate, 10% glycerol, 10 μg/ml leupeptin and 2 mM phenylmethylsulfonyl fluoride) for 20 min on ice followed by four 5-second sonication bursts on ice. Lysates were centrifuged at 14,000 ×g for 10 min at 4° C. Protein concentrations were measured by the Bradford (1976) assay using bovine serum albumin (BSA) standards. Approximately 50 μg of cell lysates were mixed with 2Xsample buffer and boiled for 5 min. Samples were resolved by 10% SDS-polyacrylamide gel electrophoresis (PAGE), transferred to nitrocellulose membranes, blocked in 5% skim milk and 1% BSA in 1XTBS, and incubated overnight at 4° C. with primary antibody at indicated dilutions. Blots were then washed with TBS buffer containing 0.15% Tween 20 (washing buffer), incubated with a 1:1000 dilution of anti-mouse or anti-rabbit IgG-conjugated horseradish peroxidase for 1 h at room temperature, washed again and processed by ECL detection (Amersham). […]

DENN [2] = test: RT-PCR of DENN RNA in Aβ-exposed N2A cultures; format: cell-based, murine; details: N2A cells
Procedure: as §1
Total RNA was purified using the RNeasy miniprep kit (Qiagen) and resuspended in 50 μt RNase free water. For each RT-PCR, 1 μg RNA was subjected to One-Step RT-PCR using Omniscript and Sensiscript Reverse transcriptases, HotStarTaq DNA polymerase and 0.5 μM of DENN primers: sense, SEQ ID NO: 6: 5′-[…]-3′ and antisense, SEQ ID NO: 1: 5′-[…]-3′, for 30 cycles with the following conditions: 94° C., 30 s; 60° C., 1 min; 72° C., 1 min. Human and murine actin prim were supplied by Clontech.
RNA expression was compared in N2A cells (FIG. 6B).

[3] = test system: neuronal PC12 cells and sympathetic neurons; details: cited from earlier work
JNK3 = details: cited from earlier work
NSC19 cells [4] = test: Annexin V FACS apoptosis assay, NSC19 cells overexpressing DENN or DENN mutants, Aβ(1-40) with or without SB203580; format: cell-based, mouse; details: 10 μM SB203580 with Aβ(1-40)
Description: In contrast to primary CNS cultures, NSC19 are more readily transfectable and highly responsive to apoptosis (Smirnova et al., 1998; Citron et al, 1997). Cells were maintained in high glucose Dulbecco's Modified Eagle's Medium (DMEM) (GIBCO-BRL/Life Technologies, Rockville, Md.) supplemented with 10% fetal bovine serum (FBS) and 1% streptomycin/penicillin. Neuro2A cells (CCL-131), C0S7 (CRL-1651) and human embryonic kidney 293 (CRL-1573) cells were acquired from ATCC. Murine neuroblastoma Neuro2A (N2A) were grown in MEM supplemented with 10% FBS, while COS7 and 293 were maintained in DMEM supplemented with 10% FBS. Cells were plated (5 ×10^5 cells/ml) in 35-mm dishes and transfected with 1 μg total DNA using Effectene or SuperFect (Qiagen) as described by the manufacturer. […]
Cells were analyzed by fluorescence-activated cell sorting (FACS) analysis on a FACSTAR PLUS (Becton-Dickinson) and analyzed with Cell Quest software. […]
(PI) for cell death or GFP and phycoerythrin (PE)-conjugated annexin V for early apoptosis. The percentage of cell death was quantified as those cells expressing GFP and either annexin V or 7-AAD staining relative to total GFP expressing cells. Experiments were performed in triplicate with 10,000 events counted. […]

JNK [5] = details: at 10 μM; cited from earlier work
JNK [6] = test: JNK immunoprecipitation in vitro kinase assay (GST-c-Jun substrate) from Aβ-exposed N2A clones; format: cell-based, murine; details: 1 μM CEP11004 with 25 μM Aβ(1-42), 24 h; N2A clones expressing GFP or DENN
Procedure: For kinase assays, cells were exposed to 25 μM Aβ(1-40) in the absence or presence of 1 μM CEP11004 for the specified duration. Cell extracts were prepared, incubated with 5 μl JNK antibody for 4 h at 4° C. and precipitated with 60 μl 50% slurry protein A/G sepharose overnight at 4° C. Immunoprecipitates were washed, then incubated with 1 μg GST-cJun (1-79) and 50 μM ATP in 40 μl for 30 min at 30° C. Reactions were terminated with 40 μl Laemmli buffer, boiled for 4 min, centrifuged and 40 μl was loaded onto 10% SDS-PAGE, transferred to nitrocellulose and probed with phospho-c-Jun (Ser73) antibody.
N2A clones expressing GFP or DENN were exposed to 25 μM Aβ(1-42) either in the absence or presence of 1 μM CEP11004. Previously, inhibitiori of Aβ-induced cell death in neuronal PC12 cells and sympathetic neurons required less than 300 nM CEP1347 (Troy et al., 2001). After 24 h Aβ exposure, JNK was immunoprecipitated from cell extracts and incubated with GST-c-Jun substrate and ATP in an in vitro kinase assay. The reactions were immunoblotted with antibody specific to phosphorylated c-Jun. […] Thus, reduction of cell death and JNK activity by JNK inhibitors in DENN overexpressing cell cultures supports DENN involvement in c-Jun activation and cellular apoptosis.

[7] = test system: mouse primary hippocampal neurons; test: TUNEL cell death assay in primary hippocampal neurons; format: cell-based; details: for Aβ-induced cell death (TUNEL positive cells): CEP11004 with 25 μM Aβ(1-42), 24 h, Control-AS or DENN-AS treated hippocampal cultures
Procedure: Primary mouse and rat hippocampal neurons were prepared from newborn C57B1/6 mouse or Sprague-Dawley rat pups. Briefly, hippocampi were dissected out, minced and digested with 100 U papain and 0.2 μg/ml DNaseI. Following digestion, cells were 'triturated with fire-polished Pasteur pipets and centrifuged in media containing 20 μg/ml BSA. Cells were plated on collagen-coated or poly-lysine coated plates at a density of 3×10^6 cells/ml in Neurobasal medium with B27 supplement and antibiotics (Life Technologies, Gaithersburg, Md.). One day after plating, cells were exposed to 5 μM cytosine arabinoside for 4 d to kill dividing cells. Experiments were performed after 6-8 days in vitro (DIV).
(§2) (PI) for cell death or GFP and phycoerythrin (PE)-conjugated annexin V for early apoptosis. The percentage of cell death was quantified as those cells expressing GFP and either annexin V or 7-AAD staining relative to total GFP expressing cells. Experiments were performed in triplicate with 10,000 events counted. TUNEL staining was performed according to manufacturer's instructions (Roche).
To assess cell death in neuronal cultures exposed to anti-sense oligonucleotides and Aβ, TUNEL staining was performed (FIG. 9B). […] However, due to the increased TUNEL staining with DENN-AS treated cultures, the overall cell death with Aβ was 10-15% greater in these cultures (FIG. 9C). DENN-AS treatment alone increased cell death by 20%. […] Furthermore, the level of cell death observed with Aβ was abrogated by exposing neuronal cultures to 1 βM CEP11004.

NSC19 cells [8] = test: FACS cell death assay (GFP and PI positive cells) after Aβ(1-40) exposure; format: cell-based, mouse; details: GFP-expressing NSC19 cultures, Aβ for 48 h
Procedure: Lyophilized, HPLC purified β-amyloid, Aβ25-35, Aβ1-40 , Aβ1-42 and Aβ40-1 were obtained from either Sigma Chemical Co., U.S. Peptide (Fullerton, Calif.) or Bachem (Torrance, Calif.), respectively. Peptides were reconstituted in double-distilled H2O at 10 mM Aβ. To age the β-amyloid in vitro and produce aggregated, fibrillar Aβ, an aliquot of the Aβ stock solution was dissolved at the indicated concentration in culture medium and incubated at 37° C. for 3 to 5 days. Cells were incubated with the appropriate Aβ peptide concentration for the indicated times and examined for immunofluorescence or cell death assay.
Cells were analyzed by fluorescence-activated cell sorting (FACS) analysis on a FACSTAR PLUS (Becton-Dickinson) and analyzed with Cell Quest software. FACS analysis for two color analysis used GFP and either 7-amino-actinomycin (7-AAD) or propidium iodide
as §2
Neurotoxicity induced by Aβ(1-40) exposure was further examined using clonal cells expressing GFP-fused mutant forms of DENN. […]

Compound: Aβ: β-amyloid peptide; per FIG. 6 legend 20 μM fibrillar Aβ(1-40)
- reduction of endogenous DENN protein (DENN [1]; NSC19 and N2A cells, 20 μM fibrillar Aβ(1-40), 48 h): approximately 3 fold
- reduction in DENN RNA expression (RT-PCR) (DENN [2]): four-fold

Compound: OO [hydrogen peroxide]
- DENN expression in cultures treated with oxidative stress factors (DENN [1]): reduction in DENN expression

Compound: CCSCc1ccc2c(c1)c1c3c(c4c5cc(CSCC)ccc5n5c4c1n2[C@H]1C[C@](O)(C(=O)OC)[C@]5(C)O1)CNC3=O [CEP1347]
- concentration required for inhibition of Aβ-induced cell death [3]: less than 300 nM
- JNK3 activation (JNK3): inhibit JNK3 activation

Compound: C[S+]([O-])c1ccc(-c2nc(-c3ccc(F)cc3)c(-c3ccncc3)[nH]2)cc1 (centres unmarked) [SB203580, 4-(4-fluorophenyl)-2-(4-methylsulfinylphenyl)-5-(4-pyridyl)-1H-imidazole]
- cell death/apoptosis in DENN-JBD transfected cells with Aβ/SB203580 co-treatment (NSC19 cells [4]; NSC19 DENN-JBD transfectants, p<0.05): reproducible increase in cell death; also recorded: slight increase in apoptosis
- apoptotic response (GFP and annexin V positive cells) to Aβ in cells overexpressing DENN or DENN-CT (NSC19 cells [4]; NSC19 cells overexpressing DENN or DENN-CT, p<0.01): significantly attenuated apoptotic response; also recorded: decreased
- JNK activity inhibition (JNK [5]): JNK activity is also inhibited

Compound: CCSCc1ccc2c(c1)c1c3c(c4c5cc(CSCC)ccc5n5c4c1n2C1C[C@](O)(C(=O)OC)[C@]5(C)O1)CNC3=O [CEP11004]
- JNK activity (c-Jun phosphorylation) (JNK [6]): four-fold; also recorded: inhibits Aβ-induced c-Jun phosphorylation
- effect on DENN AS-induced cell death ([7]; CEP11004, DENN-AS treated hippocampal cultures): little effect
- Aβ-induced cell death (TUNEL positive cells) [7]: abrogated
- Aβ-induced cell death (TUNEL positive cells) ([7]; listed as CEP1004): inhibits effect of Aβ-induced cell death

Compound: Aβ(1-40): β-amyloid peptide 1-40, aged in vitro to aggregated, fibrillar form
- increase in cell death after Aβ exposure (NSC19 cells [8]): five-fold

Compound: N[C@@H](CCC(=O)O)C(=O)O [glutamate]
- DENN expression in cultures treated with oxidative stress factors (DENN [1]): reduction in DENN expression
